According to US11174282B2, “Aminosteroid derivatives and process for producing same” (UNIVERSITÉ LAVAL, priority 2016, dated 2021):
Entries after “also recorded” stand apart in the source; their conditions may differ. Like-named read-outs stand apart in the source and are kept apart here.

Tests used:
[1] = system: LNCaP (prostate cancer) cells; test: Cell proliferation assay (MTS), LNCaP; assay type: cell-based; conditions: Homo sapiens, 72 h, read-out: IC50 (μM) Prostate cancer LNCaP
Procedure: (§1) The different aminosteroids were dissolved in methanol (50 mM).

[2] = Metabolic stability assay, human liver microsomes; conditions: 10 μM, 1 h, 40 μg human liver microsomes; result in words
Procedure: (§2) Assays were performed at 37° C. for 1 h, with or without 10 mM NADPH in the presence of 40 μg of human liver microsome from Corning (Melrose, Mass., USA) and 10 μM of aminosteroid substrate in a final 100 μL volume of 50 mM Tris buffer (pH 7.4) supplemented with 10 mM MgCl2. Assays were ended by adding 100 μL of MeOH followed by centrifugation at 13,000 g for 10 min to obtain a pellet of proteins. The supernatant of 2 assays was pooled and submitted to HPLC-MS analysis (Shimadzu LCMS-2020 APCI, Alltima HP C18 (250 mm×4.6 mm, 5 μm) column, MeOH:H2O gradient). Remaining substrate (expressed in %) was calculated by dividing the area under the curve of the substrate for the assays without NADPH by the area under the curve of the substrate for the assays with NADPH and multiplied by 100. Values represent the average of 2 independent experiments.

[3] = system: Human pancreas cancer cells (PANC-1); test: Cell proliferation assay (MTS), PANC-1; assay type: cell-based; conditions: Homo sapiens, PANC-1, 72 h, 3 days treatment, MTS; read-out: IC50 (μM) Pancreatic cancer PANC-1
Procedure: as §1

[4] = system: OVCAR-3 cells (ovarian cancer); test: Cell proliferation assay (MTS), OVCAR-3; assay type: cell-based; conditions: Homo sapiens, OVCAR-3, 72 h, 3 days treatment, MTS; read-out: IC50 (μM) Ovarian cancer OVCAR-3
Procedure: as §1

[5] = system: LAPC-4 (prostate cancer) cells; test: Cell proliferation assay (MTS), LAPC-4; assay type: cell-based; conditions: Homo sapiens, LAPC4, 72 h, 3 days treatment, MTS; read-out: IC50 (μM) Prostate cancer LAPC-4
Procedure: as §1

[6] = system: MCF-7 breast cancer cells; test: Cell proliferation assay (MTS), MCF-7; assay type: cell-based, human; conditions: 3 days treatment
Procedure: as §1

[7] = system: T-47D breast cancer cell line; test: Cell proliferation assay (MTS), T-47D; assay type: cell-based; conditions: 72 h; for IC50: Homo sapiens, T47D, 3 days treatment, MTS
Procedure: as §1

[8] = system: PANC-1, BxPC-3, Hs766, OVCAR-3, Caov3, SKOV3, MCF-7, T-47D and LAPC-4 cell lines; test: Cytotoxic activity screening at 5 and 1 μM on cancer cell lines; conditions: independently of the cancer cell line tested, result in words
Procedure: The cell proliferation assay was performed using 3-(4,5-dimethylthiazol-2-yl)-5-(3-carboxymethoxyphenyl)2-(4-sulfophenyl)-2H-tetrazolium (MTS) (Cell Titer 96 Aqueous, Promega, Nepean, ON, Canada) as previously described [3, 4, 5]. Briefly, cells were plated in triplicate in 96-well plates (1×10^4 cells/well) in appropriate culture medium (total of 90 μL). Before each treatment, the cells were incubated at 37° C. in a 5% CO2 humidified atmosphere for 24 h. The different aminosteroids were dissolved in methanol (50 mM). The stock solutions were diluted at multiple concentrations with culture media in order to obtain the desired final concentration followed by the addition of 10 μL to each well, and the mixture incubated for 3 days. Following treatment, MTS (10 μL) was added to each well and the mixture was incubated for 4 h.

[9] = system: PC-3 (prostate cancer) cells; test: Cell proliferation assay (MTS), PC-3; assay type: cell-based; conditions: 72 h, read-out: IC50 (μM) Prostate cancer PC-3
Procedure: as §1

Water solubility = assay type: physicochemical; conditions: relative to RM-581-OH
[10] = system: human MCF-7 breast tumors; test: MCF-7 tumor growth (xenograft) in ovariectomized nude mice; assay type: in vivo; conditions: 60 mg/kg s.c., 28-day treatment
Text: FIG. 2 is an illustration of the effect of aminosteroid RM-581-102 (compound 6) on MCF-7 tumor growth. A) Effect of a 28-day treatment on 17β-estradiol (E2)-induced growth of human MCF-7 breast tumors in ovariectomized (OVX) nude mice in accordance with an embodiment of the present disclosure. Tumor sizes are expressed as the percentage of initial tumor area (day 1 of treatment=100%). Data are expressed as the mean±SEM (n=10-12 tumors and 6-7 mice per group). […] B) Initial and final body weight of the mice.

[11] = system: renal proximal tubule epithelial cells (RPTEC); test: Toxicity on normal cells (MTS), RPTEC; assay type: cell-based, human; conditions: Homo sapiens, RPTEC, normal (kidney) cells; read-out: IC50 (μM) RPTEC (normal cells)
Procedure: as §1

[12] = system: MCF-10A cells (model for normal breast cells); test: Cell proliferation assay (MTS), MCF-10A; assay type: cell-based
Procedure: A selectivity index (SI) for RM-581-102 was calculated as the ratio of its IC50 value in MCF-10A cells, a cell line used as a model for normal breast cells, versus its IC50 value in MCF-7 breast cancer cells (Table 4). […] It would thus appear that the replacement of the 5α-androstane-3α,17β-diol backbone by that of mestranol, is beneficial for the selectivity of these aminosteroid derivatives.
as §1

[13] = human, microsomes, 1 h, 10 μM, pH 7.4
Procedure: as §2

in vivo = conditions: female, Balb/c, mouse
Procedure: The plasmatic concentration (AUC) of RM-581-102 was determined following four different methods of administration (s.c., p.o., i.v. and i.p.) at the following concentrations: 60 mg/kg of body weight in 0.1 mL for s.c. and p.o. administration; 2 mg/kg of body weight in 0.02 mL for i.v. caudal administration; and 20 mg/kg of body weight in 0.1 mL for i.p. administration. For the s.c., p.o. and i.p. administrations, RM-581-102 was first dissolved in DMSO followed by the addition of propylene glycol to obtain a final concentration of DMSO of 8%. Regarding the i.v. administration, RM-581-102 was first dissolved in DMSO (8%) followed by the addition of DMA (38%) and propylene glycol (60%). For the i.v. administration, the mice were fasted over a period of 8 h before injection of RM-581-102.
Animals: Six to seven week-old female Balb/c mice weighing approximately 18 g were obtained from Charles-River, Inc (St-Constant, Qc., Canada). The animals were acclimatized to environmental conditions (temperature: 22±3° C.; humidity: 50±20%; 12-h light/12-h dark cycles, lights on at 07:15 h) for at least 5 days before starting the experiment. The animals were housed three per cage and were allowed free access to water and a certified commercial rodent food (Rodent diet #T.2018.15, Harlan Teklad, Madison, Wis., U.S.A.). The experiments with the animals were conducted in an animal facility approved by the Canadian Council on Animal Care (CCAC) and the Association for Assessment and Accreditation of Laboratory Animal Care. The study was performed in accordance with the CCAC Guide for Care and Use of Experimental Animals. Institutional approval was obtained.
Assay: The pharmacokinetic study was carried out following four different methods of administration (s.c., p.o., i.v. and i.p.) of RM-581-102 at the following concentrations: 60 mg/kg of body weight in 0.1 mL for s.c. and p.o. administration; 2 mg/kg of body weight in 0.02 mL for i.v. caudal administration; and 20 mg/kg of body weight in 0.1 mL for i.p. administration. For the s.c., p.o. and i.p. administrations, RM-581-102 was first dissolved in DMSO followed by the addition of propylene glycol to obtain a final concentration of DMSO of 8%. Regarding the i.v. administration, RM-581-102 was first dissolved in DMSO (8%) followed by the addition of DMA (38%) and propylene glycol (60%). For the i.v. administration, the mice were fasted over a period of 8 h before injection of RM-581-102. Blood samples for the determination of RM-581-102 plasma concentrations were collected by cardiac puncture at target intervals ranging from 5 minutes to 24 hours post-dose administration from 3 mice/time point. The blood samples were collected in Microvette® potassium-EDTA (ethylenediamine tetra-acetic acid)-coated tubes (Sarstedt AG & Co, Germany) and centrifuged at 3200 rpm for 10 minutes at 4° C. The plasma was subsequently collected and stored at −80° C. until analysis by liquid chromatography/mass spectrometry/mass spectrometry (LC/MS/MS).
The plasma concentrations of RM-581-102 was determined by LC/MS/MS analysis using a procedure developed at CHUQ (CHUL)—Research Center (Bioanalytical Service). For extraction from the plasma, a plasma sample (100 μL) was transferred to individual tubes and 600 μL of ammonium acetate (1 mM) was added. A methanolic solution (50 μL) containing a deuterated steroid internal standard was then added to each tube. Samples were then transferred on Strata-X SPE columns (Phenomenex, Torrance, Calif., USA) and each column was washed with water and methanol:water (10:90, v/v). RM-581-102 was then eluted with 5 mL of methanol containing 1 mM ammonium acetate.

For `C#C[C@@]1(O)CC[C@H]2[C@@H]3CCc4cc(OP(=O)(O)O)c(N5CCN(C(=O)[C@@H]6CCCN6C(=O)c6ccc7ccccc7n6)CC5)cc4[C@H]3CC[C@@]21C` [Compound 5, (17β)-17-ethynyl-17-hydroxy-2-{4-[1-(quinolin-2-ylcarbonyl)-L-prolyl]piperazin-1-yl}estra-1,3,5(10)-trien-3-yl dihydrogen phosphate], the IC50 [1] was 0.6 ± 0.05 µM, the “metabolic stability (% of remaining compound)” value [2] was “stability similar to its phenolic counterpart” and the IC50 [3] was 2.6 ± 0.1 µM. It also gave an IC50 [4] of 4.6 ± 0.7 µM, an IC50 [5] of 0.3 ± 0.07 µM and an IC50 ([6]; Homo sapiens, MCF7, 72 h) of 1.5 ± 0.3 µM. The IC50 [7] was 0.3 ± 0.05 µM, the “cytotoxic activity in screening (cell survival)” value [8] was “without adversely affecting the antiproliferative properties; also recorded: only slight differences in their respective levels of activity” and the IC50 [9] was 1.3 ± 0.05 µM. For the same molecule, the water solubility (Water solubility) was “significant enhancement of water solubility”.

For `C#C[C@]1(O)CC[C@H]2[C@@H]3CCc4cc(OC)c(N5CCN(C(=O)[C@@H]6CCCN6C(=O)c6ccc7ccccc7n6)CC5)cc4[C@H]3CC[C@@]21C` [RM-581, {4-[17α-Ethynyl-17I-hydroxy-3-methoxyestra-1,3,5(10)-trien-2-yl]piperazin-1-yl}[(2S)-1-(quinolin-2-ylcarbonyl)pyrrolidin-2-yl]methanone], the IC50 ([1]; 3 days treatment, MTS) was 1.2 ± 0.6 µM, the “behavioral changes, signs of toxicity and weight loss” value ([10]; compared with control groups) was “no behavioral changes, signs of toxicity and weight loss” and the “MCF-7 tumor growth (tumor size, % of initial tumor area)” value ([10]; 6 days per week, E2-stimulated OVX nude mice) was “complete blockade of tumor growth; also recorded: significant tumor regression from day 21 up to day 28”. For the same molecule, the IC50 [11] was greater than 50 µM, the IC50 [3] was 3.9 ± 0.9 µM and the IC50 [4] was 5 ± 0.5 µM. The IC50 [5] was 0.6 ± 0.3 µM, the IC50 [6] was 2.6 ± 0.3 µM and the IC50 ([6]; listed as RM-581-102) was 1.1 ± 0.1 µM. For the same molecule, the IC50 [7] was 0.5 ± 0.05 µM, the “cytotoxic activity compared with known antineoplastic agents” value ([7]; T-47D, 1.0 and 5 μM, vs paclitaxel, gemcitabine, fluorouacil, oxaliplatin, irinotecan) was “stronger cytotoxic activities at both concentrations” and the IC50 ([9]; 3 days treatment, MTS) was 1.6 ± 0.3 µM. The IC50 ([12]; Homo sapiens, MCF-10A, model for normal breast cells) was 16.8 µM, the “times more selective compared to RM-133” value ([12]; in vitro MCF-7 and MCF-10A cell models) was 5.1 times and the “Selectivity Index” value ([12]; ratio of IC50 in MCF-10A cells versus IC50 in MCF-7 cells) was 15.3. For the same molecule, the “metabolic stability (% of remaining compound)” value [13] was “significantly more stable toward phase-I hepatic metabolism than RM-133”, the AUC(0-t) (in vivo; ip, 20 mg/kg) was 11400 ng·h/mL and the concentration at 3 h (in vivo; ip, 20 mg/kg) was 5300 ng/mL. It also gave an AUC(0-t) (in vivo; iv, 2 mg/kg) of 595 ng·h/mL, a concentration at 3 h (in vivo; iv, 2 mg/kg) of 300 ng/mL and an AUC(0-t) (in vivo; po, 60 mg/kg) of 5540 ng·h/mL. The concentration at 3 h (in vivo; po, 60 mg/kg) was 550 ng/mL, the AUC(0-t) (in vivo; sc, 60 mg/kg) was 7760 ng·h/mL and the concentration at 3 h (in vivo; sc, 60 mg/kg) was 600 ng/mL.
